Measurements published in patent US7875727B2, “Benzimidazole vascular damaging agents” (Angiogene Pharmaceuticals Ltd., priority 1999, dated 2011).

System: tumour vasculature in CaNT tumour-bearing mice
Assay: Activity against tumour vasculature measured by fluorescent dye (Hoechst 33342 functional vascular volume)
Assay type: in vivo
Settings: 50 mg/kg i.p., 24 h after drug treatment, compared to control
Source text: Activity Against Tumour Vasculature Measured by Fluorescent Dye.
One minute later, animals were killed and tumours excised and frozen; 10 μm sections were cut at 3 different levels and observed under UV illumination using an Olympus microscope equipped with epifluorescence. […] All estimates were based on counting a minimum of 100 fields from sections cut at the 3 different levels. Results are expressed as percentage reduction in vascular volume compared to control.

Compound	% Reduction in vascular volume [%]
COC(=O)Nc1nc2cc(Sc3ccc(OP(=O)(O)O)cc3)ccc2[nH]1 [Example 3, Methyl [5(6)-(4-phosphonooxyphenylthio)-IH-benzimidazol-2yl]carbamate]	22
COC(=O)Nc1nc2cc(Sc3ccc(N)cc3)ccc2[nH]1 [Example 4, Methyl [5(6)-(4-aminophenylthio)-1H-benzimidazol-2yl]carbamate]	53
COC(=O)Nc1nc2cc(Sc3ccc(NC(=O)[C@H](C)N)cc3)ccc2[nH]1 [Example 5, Methyl [5(6)-(4-alanylaminophenylthio)-IH-benzimidazol-2yl]carbamate]	99
COC(=O)Nc1nc2cc(Sc3ccc(O)cc3)ccc2[nH]1 [Example 12, Methyl [5(6)-(4-hydroxyphenylthio)-1H-benzimidazol-2yl]carbamate]	51
COC(=O)Nc1nc2cc(Oc3ccc(OP(=O)(O)O)cc3)ccc2[nH]1 [Example 14, Methyl [5(6)-(4-phosphonooxyphenoxy)-1H-benzimidazol-2yl]carbamate]	39
COC(=O)Nc1nc2cc(C(=NO)c3ccc(O)cc3)ccc2[nH]1 [Example 15, Methyl [5(6)-(4-hydroxy-@-hydroxyiminobenzyl)-1H-benzimidazol-2yl]carbamate]	61
COC(=O)Nc1nc2cc(Oc3ccc(NC(C)=O)cc3)ccc2[nH]1 [Example 16, Methyl [5(6)-(4-(acetylamino)phenoxy)-1H-benzimidazol-2yl]carbamate]	56
COC(=O)Nc1nc2cc(Oc3ccc(N)cc3)ccc2[nH]1 [Example 17, Methyl [5(6)-(4-aminophenoxy)-1H-benzimidazol-2yl]carbamate]	62
COC(=O)Nc1nc2cc(Oc3cccc(N)c3)ccc2[nH]1 [Example 18, Methyl [5(6)-(3-aminophenoxy)-1H-benzimidazol-2yl]carbamate]	47
COC(=O)Nc1nc2cc(Oc3ccc(O)cc3)ccc2[nH]1 [Example 19, Methyl [5(6)-(4-hydroxyphenoxy)-1H-benzimidazol-2yl]carbamate]	88
COC(=O)Nc1nc2cc(Oc3ccccc3O)ccc2[nH]1 [Example 20, Methyl [5(6)-(2-hydroxyphenoxy)-1H-benzimidazol-2yl]carbamate]	69
COC(=O)Nc1nc2cc(Oc3cccc(O)c3)ccc2[nH]1 [Example 21, Methyl [5(6)-(3-hydroxyphenoxy)-1H-benzimxdazol-2yl]carbamate]	74

Same assay, conditions: 100 mg/kg i.p., 6 h after drug treatment, compared to control

Compound	% Reduction in vascular volume [%]
CCCOc1ccc2[nH]c(NC(=O)OC)nc2c1 [Oxibendazole, reference compound]	43

Same assay, conditions: 100 mg/kg i.p., 24 h after drug treatment, compared to control

Compound	% Reduction in vascular volume [%]
COC(=O)Nc1nc2cc(C(=O)c3cccs3)ccc2[nH]1 [Nocodazole, reference compound]	23

Same assay, conditions: 500 mg/kg i.p., 6 h after drug treatment, compared to control

Compound	% Reduction in vascular volume [%]
CCCSc1ccc2[nH]c(NC(=O)OC)nc2c1 [Albendazole, reference compound]	51
COC(=O)Nc1nc2cc(C(=O)c3ccc(O)cc3)ccc2[nH]1 [Example 1, Methyl [5(6)-(4-hydroxybenzoyl)-IH-benzimidazol-2vl]carbamate]	81
COC(=O)Nc1nc2cc(C(=O)c3ccc(OP(=O)(O)O)cc3)ccc2[nH]1 [Example 2, Methyl [5(6)-(4-phosphonooxybenzoyl)-1H-benzimidazol-2yl]carbamate]	80
COC(=O)Nc1nc2cc(Sc3ccccc3)ccc2[nH]1 [Fenbendazole, reference compound]	44
COC(=O)Nc1nc2cc(C(=O)c3ccccc3)ccc2[nH]1 [Mebendazole, reference compound]	56

System: vasculature
Assay: not given
Settings: administered at the MTD; cited from earlier work

Compound	vascular-damaging activity
CC(=O)O[C@@]12CO[C@@H]1C[C@H](O)[C@@]1(C)C(=O)[C@H](O)C3=C(C)[C@@H](OC(=O)[C@H](O)[C@@H](NC(=O)OC(C)(C)C)c4ccccc4)C[C@@](O)([C@@H](OC(=O)c4ccccc4)[C@H]21)C3(C)C [docetaxel]	no vascular-damaging activity
